Where “and” joins values, the source holds several entries; their conditions need not be identical. Identical values can stand only once. Inconclusive results and toxic doses are left out. Cut-off read from the data, not from the text of the source: active = T/C of 150% or more; inactive = T/C below 125%.
Test system: L1210 leukemia ip in BDF1 mice, survival T/C
Experiment: NCI In Vivo Anticancer Drug Screen. Data for tumor model L1210 Leukemia (intraperitoneal) in B6D2F1 (BDF1) mice
Settings: endpoint: mean survival time, higher = longer survival
Procedure, shortened: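 Read-out is survival time, reported as the treated-group measurement over the vehicle-control measurement.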

[1] = dose: 6.25 mg/kg/injection, schedule: Q01DX009 (ip), vehicle: saline with Tween-80
[2] = dose: 12.5 mg/kg/injection, schedule: Q01DX009 (ip), vehicle: saline with Tween-80
[3] = dose: 25.0 mg/kg/injection, schedule: Q01DX009 (ip), vehicle: saline with Tween-80
[4] = dose: 100.0 mg/kg/injection, schedule: Q01DX009 (ip), vehicle: saline with Tween-80
[5] = dose: 100.0 mg/kg/injection, schedule: Q04DX003 (ip), vehicle: saline with Tween-80
[6] = dose: 200.0 mg/kg/injection, schedule: Q01DX009 (ip), vehicle: saline with Tween-80
[7] = dose: 200.0 mg/kg/injection, schedule: Q04DX003 (ip), vehicle: saline with Tween-80
[8] = dose: 400.0 mg/kg/injection, schedule: Q01DX009 (ip), vehicle: saline with Tween-80
[9] = dose: 400.0 mg/kg/injection, schedule: Q04DX003 (ip), vehicle: saline with Tween-80
[10] = dose: 100.0 mg/kg/injection, schedule: Q01DX001 (ip), vehicle: saline
[11] = dose: 200.0 mg/kg/injection, schedule: Q01DX001 (ip), vehicle: saline
[12] = dose: 400.0 mg/kg/injection, schedule: Q01DX001 (ip), vehicle: saline
[13] = dose: 100.0 mg/kg/injection, schedule: Q04DX002 (ip), vehicle: saline with Tween-80
[14] = dose: 25.0 mg/kg/injection, schedule: Q01DX009 (ip), vehicle: saline
[15] = dose: 50.0 mg/kg/injection, schedule: Q01DX009 (ip), vehicle: saline
[16] = dose: 50.0 mg/kg/injection, schedule: Q04DX003 (ip), vehicle: saline
[17] = dose: 100.0 mg/kg/injection, schedule: Q04DX003 (ip), vehicle: saline
[18] = dose: 100.0 mg/kg/injection, schedule: Q01DX009 (ip), vehicle: Klucel (hydroxypropylcellulose) (HPC)
[19] = dose: 200.0 mg/kg/injection, schedule: Q01DX009 (ip), vehicle: Klucel (hydroxypropylcellulose) (HPC)
[20] = dose: 400.0 mg/kg/injection, schedule: Q01DX009 (ip), vehicle: Klucel (hydroxypropylcellulose) (HPC)

Measured: T/C

CN1CCN(C(=O)Cc2c[nH]c3ccccc23)CC1
inactive: [1] 104 % of control | [2] 100 % of control | [3] 120 % of control and 91 % of control | dose: 25.0 mg/kg/injection, schedule: Q04DX003 (ip), vehicle: saline with Tween-80 100 % of control | dose: 50.0 mg/kg/injection, schedule: Q01DX009 (ip), vehicle: saline with Tween-80 95 % of control and 117 % of control | dose: 50.0 mg/kg/injection, schedule: Q04DX003 (ip), vehicle: saline with Tween-80 102 % of control | [4] 115 % of control and 88 % of control | [5] 103 % of control and 108 % of control

O=[N+]([O-])c1ccc(-n2nccn2)cc1
inactive: dose: 75.0 mg/kg/injection, schedule: Q01DX001 (ip), vehicle: other 100 % of control | dose: 150.0 mg/kg/injection, schedule: Q01DX001 (ip), vehicle: other 107 % of control

COc1ccc(C(=O)CCCCl)c(OC)c1
inactive: [4] 95 % of control | [5] 89 % of control | [6] 93 % of control | [7] 96 % of control | [8] 93 % of control | [9] 91 % of control

CONC(=O)NC(=O)C1(c2ccccc2)CCCCC1
inactive: dose: 25.0 mg/kg/injection, schedule: Q01DX Z (ip), vehicle: carboxymethylcellulose (CMC) 96 % of control | dose: 50.0 mg/kg/injection, schedule: Q01DX Z (ip), vehicle: carboxymethylcellulose (CMC) 95 % of control | [10] 86 % of control | dose: 100.0 mg/kg/injection, schedule: Q01DX Z (ip), vehicle: carboxymethylcellulose (CMC) 95 % of control | [11] 100 % of control | dose: 200.0 mg/kg/injection, schedule: Q01DX Z (ip), vehicle: carboxymethylcellulose (CMC) 102 % of control | dose: 200.0 mg/kg/injection, schedule: Q01DX Z (ip), vehicle: methylcellulose (MC) 119 % of control | [12] 102 % of control | dose: 400.0 mg/kg/injection, schedule: Q01DX Z (ip), vehicle: carboxymethylcellulose (CMC) 96 % of control | dose: 400.0 mg/kg/injection, schedule: Q01DX Z (ip), vehicle: methylcellulose (MC) 112 % of control

CC(=O)CC(=O)CC(C)C
inactive: dose: 50.0 mg/kg/injection, schedule: Q01DX001 (ip), vehicle: saline 105 % of control | [10] 103 % of control | [11] 100 % of control | [12] 94 % of control

O=[N+]([O-])c1ccc(OP(=O)(N2CCCCC2)N2CCCCC2)cc1
inactive: dose: 25.0 mg/kg/injection, schedule: Q04DX002 (ip), vehicle: saline with Tween-80 93 % of control | dose: 50.0 mg/kg/injection, schedule: Q04DX002 (ip), vehicle: saline with Tween-80 101 % of control | [13] 93 % of control

CN1CN(c2ccccc2)C2(CCN(C(=O)/C=C/c3ccc(F)cc3)CC2)C1=O
inactive: dose: 75.0 mg/kg/injection, schedule: Q04DX003 (ip), vehicle: Klucel (hydroxypropylcellulose) (HPC) 92 % of control | dose: 150.0 mg/kg/injection, schedule: Q04DX003 (ip), vehicle: Klucel (hydroxypropylcellulose) (HPC) 88 % of control

CC1C[N-]1.CC1C[N-]1.[Cl][Pt+2][Cl] (stereo unspecified)
inactive: [14] 102 % of control | [15] 103 % of control | [16] 95 % of control | dose: 100.0 mg/kg/injection, schedule: Q01DX009 (ip), vehicle: saline 101 % of control | [17] 98 % of control | dose: 200.0 mg/kg/injection, schedule: Q04DX003 (ip), vehicle: saline 98 % of control

COc1cc(C(Br)C(Br)C(=O)c2ccccc2[N+](=O)[O-])cc(OC)c1OC (stereo unspecified)
inactive: [18] 95 % of control | [19] 95 % of control | [20] 94 % of control

CNc1c(C)cccc1C
inactive: dose: 50.0 mg/kg/injection, schedule: Q04DX003 (ip), vehicle: Klucel (hydroxypropylcellulose) (HPC) 105 % of control | dose: 100.0 mg/kg/injection, schedule: Q01DX001 (ip), vehicle: Klucel (hydroxypropylcellulose) (HPC) 104 % of control | dose: 100.0 mg/kg/injection, schedule: Q04DX003 (ip), vehicle: Klucel (hydroxypropylcellulose) (HPC) 94 % of control | dose: 200.0 mg/kg/injection, schedule: Q01DX001 (ip), vehicle: Klucel (hydroxypropylcellulose) (HPC) 102 % of control | dose: 200.0 mg/kg/injection, schedule: Q04DX003 (ip), vehicle: Klucel (hydroxypropylcellulose) (HPC) 101 % of control | dose: 400.0 mg/kg/injection, schedule: Q01DX001 (ip), vehicle: Klucel (hydroxypropylcellulose) (HPC) 107 % of control

Cc1c(O)ccc([N+](=O)[O-])c1O
inactive: [1] 93 % of control | [2] 97 % of control | [3] 97 % of control

COC(=O)c1cn[nH]c1N1CC[N+](CCCl)=N1
inactive: [14] 97 % of control | dose: 25.0 mg/kg/injection, schedule: Q04DX003 (ip), vehicle: saline 102 % of control | [15] 106 % of control | [16] 104 % of control | [10] 100 % of control | [17] 104 % of control

O=C(c1ccccc1)c1nonc1C(=O)c1ccccc1
inactive: dose: 100.0 mg/kg/injection, schedule: Q01DX009 (ip), vehicle: saline sonified 93 % of control | [5] 97 % of control | dose: 200.0 mg/kg/injection, schedule: Q01DX009 (ip), vehicle: saline sonified 90 % of control | [7] 92 % of control | dose: 400.0 mg/kg/injection, schedule: Q01DX009 (ip), vehicle: saline sonified 93 % of control | [9] 97 % of control

CC(C)OC(=O)C(C)(OC(=O)c1ccccc1)c1ccccc1 (stereo unspecified)
inactive: [10] 94 % of control | [11] 91 % of control | [12] 88 % of control

CS(=O)(=O)OC1C(N=[N+]=[N-])CN(C(=O)c2ccccc2)C1CCOC(=O)c1ccccc1 (stereo unspecified)
inactive: dose: 100.0 mg/kg/injection, schedule: Q01DX001 (ip), vehicle: saline with Tween-80 102 % of control | dose: 200.0 mg/kg/injection, schedule: Q01DX001 (ip), vehicle: saline with Tween-80 96 % of control | dose: 400.0 mg/kg/injection, schedule: Q01DX001 (ip), vehicle: saline with Tween-80 96 % of control

Cc1cc(-c2ccc(NC(=O)Nc3cccc(C4=NCCN4)c3)c(C)c2)ccc1NC(=O)Nc1cccc(C2=NCCN2)c1
inactive: dose: 31.2 mg/kg/injection, schedule: Q01DX Z (ip), vehicle: methylcellulose (MC) 97 % of control | dose: 62.5 mg/kg/injection, schedule: Q01DX Z (ip), vehicle: methylcellulose (MC) 103 % of control | dose: 125.0 mg/kg/injection, schedule: Q01DX Z (ip), vehicle: methylcellulose (MC) 103 % of control

CCCCCCCCCCCCCCCCCC(=O)N/N=C\c1ccc(O)c(OC)c1
inactive: [18] 95 % of control | [19] 90 % of control | [20] 88 % of control

Cc1c(C)c2cc(Br)ccc2[nH]c1=O
inactive: dose: 100.0 mg/kg/injection, schedule: Q01DX001 (ip), vehicle: other 103 % of control | dose: 200.0 mg/kg/injection, schedule: Q01DX001 (ip), vehicle: other 97 % of control | dose: 400.0 mg/kg/injection, schedule: Q01DX001 (ip), vehicle: other 97 % of control

CC(=O)OC1COC(n2cnc3c(N4CCCCC4)ncnc32)C(OC(C)=O)C1OC(C)=O (stereo unspecified)
inactive: [10] 100 % of control | [11] 96 % of control | [12] 96 % of control

CC1=CC(=O)CC(C)(C)C1
inactive: [4] 101 % of control | [6] 101 % of control | [8] 90 % of control

O=C(CCCl)NCCCCCCNC(=O)CCCl
inactive: [10] 100 % of control | [11] 89 % of control | [12] 90 % of control

CN(C)c1ccc2nc3ccc(=O)cc-3sc2c1
inactive: dose: 50.0 mg/kg/injection, schedule: Q04DX002 (ip), vehicle: Klucel (hydroxypropylcellulose) (HPC) 88 % of control | dose: 100.0 mg/kg/injection, schedule: Q04DX002 (ip), vehicle: Klucel (hydroxypropylcellulose) (HPC) 95 % of control | dose: 200.0 mg/kg/injection, schedule: Q04DX002 (ip), vehicle: Klucel (hydroxypropylcellulose) (HPC) 92 % of control | dose: 400.0 mg/kg/injection, schedule: Q04DX002 (ip), vehicle: Klucel (hydroxypropylcellulose) (HPC) 95 % of control

CCS(=O)(=O)N1CCC(C)CC1
inactive: [13] 96 % of control | dose: 200.0 mg/kg/injection, schedule: Q04DX002 (ip), vehicle: saline with Tween-80 101 % of control | dose: 400.0 mg/kg/injection, schedule: Q04DX002 (ip), vehicle: saline with Tween-80 103 % of control

Source: PubChem BioAssay AID248 (DTP/NCI, 2004)
